A short description of the assay: Inhibition of Colwellia psychrerythraea gamma carbonic anhydrase expressed in Escherichia coli incubated for 15 mins prior to testing by stopped flow CO2 hydration method.

A word on the Ki: it is the equilibrium dissociation constant of an inhibitor or competing ligand from its target. High values mean weaker binding, low ones tighter binding.

`[F-].[Na+]` [SODIUM FLUORIDE]: the Ki was more than 100 mM.
Under `N#CO` [SODIUM CYANATE] stands 2.5 mM; under `[Cl-].[Na+]` [SODIUM CHLORIDE], 9 mM.
The same measure for `NS(=O)(=O)O` [SULFAMATE]: 0.037 mM.
The same measure for `O=[As](O)(O)c1ccccc1` [PHENYLARSONIC ACID]: 0.038 mM; for `F[P-](F)(F)(F)(F)F.[Na+]`: 5.6 mM.
`N=C=[Se]` [SODIUM ISOSELENOCYANATE] registered a Ki of 6 mM.
Under `[N-]=[N+]=[N-]` [SODIUM AZIDE] stands more than 100 mM; under `O=[Se](=O)(O)O` [SODIUM SELENATE], 8.3 mM; under `F[B-](F)(F)F.[Na+]` [SODIUM TETRAFLUOROBORATE], more than 100 mM.
In turn, `CCN(CC)C(=S)S` [DITIOCARB SODIUM] returned a Ki of 0.58 mM.
Compound `[Br-].[Na+]` [SODIUM BROMIDE] gave a Ki of more than 100 mM.
Under `O=S(=O)([O-])[O-].[Na+].[Na+]` [SODIUM SULFATE ANHYDROUS] stands 9.4 mM.
In turn, `O=C([O-])O.[Na+]` [SODIUM BICARBONATE] returned a Ki of 1.7 mM.
As for `O=BOB(O)OB(O)OB=O` [SODIUM TETRABORATE], the affinity, expressed as Ki, was 4.7 mM.
Under `O=S(=O)(O)OOS(=O)(=O)O` [SODIUM PERSULFATE] stands 4.5 mM.
`S` [SODIUM HYDROSULFIDE] returned a Ki of 4.8 mM.
With `OB(O)c1ccccc1` [PHENYLBORONIC ACID], affinity was put at a Ki of 0.026 mM.
The same measure for `O=S([O-])O.[Na+]` [SODIUM BISULFITE]: 37.5 mM.
`[I-].[Na+]` [SODIUM IODIDE] had a Ki of 8.7 mM.
The same measure for `NS(N)(=O)=O` [SULFAMIDE]: 0.008 mM.
Regarding `[O-][Cl+3]([O-])([O-])O` [SODIUM PERCHLORATE], the Ki is more than 100 mM.
The same measure for `N=C=S` [SODIUM ISOTHIOCYANATE]: 3.3 mM.
`O=[N+]([O-])[O-].[Na+]` [SODIUM NITRATE] had a Ki of 21.7 mM.
The same measure for `O=[Te](=O)(O)O` [SODIUM TELLURATE]: 5.1 mM; for `O=NO` [SODIUM NITRITE]: 8.8 mM; for `O=C([O-])[O-].[Na+].[Na+]` [SODIUM CARBONATE]: 1.4 mM.
The same measure for `S=C(S)S` [SODIUM CARBONOTRITHIOATE]: 3.8 mM.
